Values quoted from earlier work as cited in patent publication US20220096371A1, “BIODEGRADABLE MICRONEEDLE SYSTEM WITH SUSTAINED RELEASE” (University of Connecticut, priority 2020, published 2022).

[1] = 81 mg ASA oral pill, by HPLC, used as target for MN system

ACU (area under the curve) [1]: ~865 ng/ml.hr
average daily plasma concentration [1]: ~100 ng/mL
bioavailability (oral use): ~20%
Structure (SMILES): CC(=O)Oc1ccccc1C(=O)O [ASA, acetylsalicylic acid]
